{
  "source": "patent US7241787B2",
  "about": "“Substituted N-cycloexylimidazolinones, process for their preparation and their use as medicaments” (Sanofi-Aventis Deutschland GmbH, priority 2004, dated 2007)",
  "data": [
    {"biological_target": "T1, human MCH receptor (Homo sapiens, UniProt Q99705)", "T1 construct": "expressed in transfected cells", "T1 sequence (Q99705 whole entry)": "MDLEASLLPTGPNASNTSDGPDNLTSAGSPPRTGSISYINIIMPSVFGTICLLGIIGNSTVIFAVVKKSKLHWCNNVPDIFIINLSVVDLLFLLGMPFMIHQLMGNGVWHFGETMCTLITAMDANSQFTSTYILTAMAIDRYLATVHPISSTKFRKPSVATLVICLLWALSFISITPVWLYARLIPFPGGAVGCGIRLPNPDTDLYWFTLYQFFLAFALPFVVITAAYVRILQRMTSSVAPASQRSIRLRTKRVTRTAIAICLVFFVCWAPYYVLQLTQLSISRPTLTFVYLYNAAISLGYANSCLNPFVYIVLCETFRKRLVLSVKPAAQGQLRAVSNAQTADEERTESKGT", "assay": "Functional measurements of cellular calcium flux (FLIPR) to determine IC50 values", "format": "cell-based", "conditions": "recombinant HEK293 cell line expressing the human MCH receptor, calcium flux after addition of agonist (MCH) in presence of ligand", "from_the_text": "Functional measurements to determine IC50 values\nCloning of the cDNA for the human MCH receptor, preparation of a recombinant HEK293 cell line which expresses the human MCH receptor, and functional measurements with the recombinant cell line took place in analogy to the description by Audinot et al. (J. Biol. Chem. 276, 13554–13562, 2001). A difference from the reference was, however, the use of the plasmid pEAK8 from EDGE Biosystems (USA) for the construction of the expression vector. The host used for the transfection was a transformed HEK cell line named “PEAK Stable Cells” (likewise from EDGE Biosystems). Functional measurements of the cellular calcium flux after addition of agonist (MCH) in the presence of ligand of the invention took place with the aid of the FLIPR apparatus from Molecular Devices (USA), using protocols of the apparatus manufacturer.", "units": {"IC50": "nM"}, "values": [
      {"smiles": "O=c1n(-c2ccc(Oc3ccccc3)cc2)ccn1C1CCC(NC2CN3CCC2CC3)CC1", "note": "(stereo not shown) [Example 6]", "IC50": "2000 to 10000"},
      {"smiles": "O=c1n(-c2ccc(Oc3ccccc3)cc2)ccn1C1CCC(N2CCCNCC2)CC1", "note": "(stereo not shown) [Example 8]", "IC50": "10 to 2000"},
      {"smiles": "CC(=O)N[C@@H]1CCN(C2CCC(n3ccn(-c4ccc(Oc5ccccc5)cc4)c3=O)CC2)C1", "note": "(stereo partly drawn) [Example 1, (R)-N-(1-{4-[2-oxo-3-(4-phenoxyphenyl)-2,3-dihydroimidazol-1-yl]cyclohexyl}pyrrolidin-3-yl)acetamide]", "IC50": "10 to 2000"},
      {"smiles": "CN(C)CCO[C@H]1CC[C@H](n2ccn(-c3ccc(OC4CCCC4)cc3)c2=O)CC1", "note": "[Example 2, Trans-1-(4-cyclopentyloxy-phenyl)-3-[4-(2-dimethylaminoethoxy)cyclohexyl]-1,3-dihydroimidazol-2-one]", "IC50": "10 to 2000"},
      {"smiles": "O=c1n(-c2ccc(Oc3ccccc3)cc2)ccn1C1CCC(N2CCN(CCO)CC2)CC1", "note": "(stereo not shown) [Example 3]", "IC50": "2000 to 10000"},
      {"smiles": "CN1CCN(C2CCC(n3ccn(-c4ccc(Oc5ccccc5)cc4)c3=O)CC2)CC1", "note": "(stereo not shown) [Example 9]", "IC50": "2000 to 10000"},
      {"smiles": "O=c1n(-c2ccc(Oc3ccccc3)cc2)ccn1C1CCC(N2CCNCC2)CC1", "note": "(stereo not shown) [Example 5]", "IC50": "10 to 2000"}
    ]}
  ]
}
